From patent publication EP1038516A1, “Cosmetic composition comprising kynurenine” (Uchikuga, Saburoh, priority 1999, dated 2000)
Several values for one entry are separate records, joined by “and”; a condition that tells them apart may be missing. Equal entries are not always repeated.

How the values were obtained:
[1] = Ultraviolet absorption (maximum absorption wavelength and molecular extinction coefficient); format: physicochemical; settings: for Maximum absorption wavelength (λmax): UV-A region (320 to 380 nm); for Molecular extinction coefficient (ε): at λmax in the UV-A region
Excerpt: The properties of kynurenine and the derivative thereof are collectively shown below in Table 1, along with the properties of "Palsole A". As apparently shown in the table and Fig. 1, the maximum absorption lengths (λmax) of kynurenine and the derivative thereof preferably reside in 360 to 365 nm in the UV-A region (320 to 380 nm) with the highest risk of direct darkening of skin. Kynurenine has a molecular extinction coefficient (ε) functioning as a marker of the intensity of ultraviolet absorption (ε = 4,000), which is about 1/10 of the commercially available Palsole A (ε = 36,000). […] Accordingly, such large quantity considered abnormal is required to be blended. Table 1 In addition to the UV-A region, kynurenine and the derivative thereof have the maximum absorption wavelength at 253 nm with the molecular extinction coefficient of 6,700. In other words, kynurenine and the derivative thereof exert absorption in the UV-C region ([…]). The ultraviolet ray in the UV-C region is generally absorbed in the ozone layer and therefore never reaches ground surface, so the absorption in the region is not meaningful as cosmetics. Kynurenine and the derivative thereof never exert absorption in the UV-B region (290 to 320 nm) in the erythema curve region with the highest risk in sunlight. Thus, an effect on the prevention of erythema against ultraviolet ray in the UV-B region cannot be expected.

[2] = tested on: tyrosinase; assay: Tyrosinase activity-inhibiting effect; format: biochemical
Excerpt: It was expectantly assumed that kynurenine and the derivative thereof inhibited tyrosinase and thereby suppressed the generation of black melanin so that kynurenine and the derivative thereof could be utilized as an ingredient for preventing spot and freckle and the deposition of pigments.

[3] = tested on: tyrosinase; assay: Test Example 1: disappearance of kynurenine / 3-hydroxykynurenine and pigment generation with tyrosinase and dopa or tyrosine; format: biochemical; settings: 3.5 hours; for disappearance of kynurenine or 3-hydroxykynurenine: assayed at 355 nm
Experimental: 5 units of tyrosinase, 2.5 µmol of dopa or tyrosine, and 1 mg of kynurenine sulfate salt or 3-hydroxykynurenine dihydrate were dissolved in 0.1M phosphate buffer, pH 7.0 to a final volume of 5 ml and the resulting solution was agitated at ambient temperature for 3.5 hours; thereafter, the disappearance of kynurenine or 3-hydroxykynurenine was assayed at 355 nm, which corresponds to the λmax of kynurenine and 3-hydroxykynurenine in UV-A. The contents of the individual tests are shown below in Table 2. Table 2 [table]

[4] = tested on: 5 bacterial strains; assay: Ames test (mutagenicity); format: cell-based
Excerpt: The kynurenine represented by the general formula I and substances relating thereto are metabolic intermediates of tryptophan and are essentially present in biological organisms; and the kynurenine and substances relating thereto are contained at particularly large quantities in the eyes of human new born babies and infants but are decreased over aging [J. Biochem., Vol. 89, 103 (1981)], and have therefore no safety problem.
The generated brown pigment is present in the eye, skin and wing of Arthropoda and Mollusca. The brown pigment is also contained in human eye. Because the brown pigment is widely distributed in animals in such manner, the generated pigment is greatly safe. The brown pigment (xanthommatin) was chemically synthesized according to the method in Angew. Chem., 69, Jahrg. 16 (1957) and subjected to Ames test.

[5] = Tests 1 and 2: tyrosinase +, dopa/tyrosine +, air +, pH 7.0, ambient temperature

Row | molecular extinction coefficient (ε) relative to Palsole A ([1]; UV-A region) | Maximum absorption wavelength (λmax) [1] [nm] | Molecular extinction coefficient (ε) [1] | disappearance of kynurenine or 3-hydroxykynurenine ([3]; Test 5: tyrosinase +, dopa/tyrosine +, no air) | pigment generation [3, 5] | disappearance of kynurenine or 3-hydroxykynurenine [3, 5] | SMILES | tyrosinase-inhibiting ability [2] | mutagenicity [4] | disappearance of kynurenine or 3-hydroxykynurenine ([3]; Test 3: tyrosinase with thermal treatment, dopa/tyrosine +, air +) | disappearance of kynurenine or 3-hydroxykynurenine ([3]; Test 4: tyrosinase +, no dopa/tyrosine, air +)
1 | about 1/10 | 355 | 4,000 | no disappearance of kynurenine observed. | pigment generated | disappeared | Nc1ccccc1C(=O)CC(N)C(=O)O (stereo not drawn) [kynurenine] | never has any ability of tyrosinase inhibition or has the ability insufficiently |  |  | 
2 |  |  |  |  |  |  | NC(CC(=O)c1cccc2oc3cc(=O)c4[nH]c(C(=O)O)cc(=O)c4c-3nc12)C(=O)O (stereo not drawn) [xanthommatin] |  | No mutagenicity was observed |  | 
3 |  | 355 | 36,000 and 35,000 |  |  |  | COc1ccc(C(=O)CC(=O)c2ccc(C(C)(C)C)cc2)cc1 [Palsole A, reference compound] |  |  |  | 
4 |  | 355 |  |  | pigment generated | disappeared | Nc1c(O)cccc1C(=O)CC(N)C(=O)O (stereo not drawn) [3-hydroxykynurenine] |  |  | no disappearance of 3-hydroxykynurenine observed. | no disappearance of 3-hydroxykynurenine observed.
